# Measurements reported in PubChem BioAssay (NCI).
#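 GI50 is the concentration that inhibits growth by half. TGI is the concentration that stops growth completely.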
# Legend:
# Experiment in all cases: inhibition of tumour cell growth, NCI panel, 384-well format
# SR leukemia = tested on: SR leukemia
# SK-MEL-28 melanoma = tested on: SK-MEL-28 melanoma
# MDA-MB-468 breast = tested on: MDA-MB-468 breast
# SK-MEL-2 melanoma = tested on: SK-MEL-2 melanoma
# TK-10 renal = tested on: TK-10 renal
# OVCAR-4 ovarian = tested on: OVCAR-4 ovarian
# MCF7 breast = tested on: MCF7 breast
# A549 NSCLC = tested on: A549 NSCLC
# RPMI-8226 leukemia = tested on: RPMI-8226 leukemia
# RXF 393 renal = tested on: RXF 393 renal
# SW-620 colon = tested on: SW-620 colon
# CAKI-1 renal = tested on: CAKI-1 renal
# HCT-15 colon = tested on: HCT-15 colon
smiles,measurement,setting,value
CC(C)C[C@H](NC(=O)[C@H](Cc1ccccc1)NC(=O)c1cnccn1)B(O)O,GI50,SR leukemia,< 10 nM
same,TGI,SR leukemia,< 10 nM
same,GI50,SK-MEL-28 melanoma,< 10 nM
same,TGI,SK-MEL-28 melanoma,< 10 nM
same,GI50,MDA-MB-468 breast,< 10 nM
same,TGI,MDA-MB-468 breast,< 10 nM
same,GI50,SK-MEL-2 melanoma,< 10 nM
same,TGI,SK-MEL-2 melanoma,< 10 nM
same,GI50,TK-10 renal,< 10 nM
same,TGI,TK-10 renal,< 10 nM
same,GI50,OVCAR-4 ovarian,< 10 nM
same,TGI,OVCAR-4 ovarian,< 10 nM
same,GI50,MCF7 breast,< 10 nM
same,TGI,MCF7 breast,13.9 nM
same,GI50,A549 NSCLC,< 10 nM
same,TGI,A549 NSCLC,62 nM
same,GI50,RPMI-8226 leukemia,< 10 nM
same,TGI,RPMI-8226 leukemia,< 10 nM
same,GI50,RXF 393 renal,< 10 nM
same,TGI,RXF 393 renal,< 10 nM
same,GI50,SW-620 colon,< 10 nM
same,TGI,SW-620 colon,< 10 nM
same,GI50,CAKI-1 renal,< 10 nM
same,TGI,CAKI-1 renal,< 12 nM
same,GI50,HCT-15 colon,< 10 nM
same,TGI,HCT-15 colon,< 13.6 nM
